These results are taken from patent EP4745134A1 (Jiangsu Yahong Meditech Co., Ltd., priority 2023, dated 2025).

Where two headings read alike, the source gives them in different places.

One test deals with HCT116-WT cells. Put plainly: Inhibitory activity against cell proliferation (CellTiter Glo, 6 days), HCT116-WT. The format is cell-based. As to conditions: 144 h, HCT116-WT cells, 6 days, CellTiter Glo; read-out: HCT116-WT IC50. The essentials:
(§1)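 Luminescence read-out (CellTiter Glo, 10 min shaking at room temperature) after 6 days of compound exposure; IC50 fitted against DMSO controls. Top dose 10000 nM, 4-fold steps, 8 points; 250 cells/well in McCoy's 5A + 10% FBS.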

The next test concerns the target PRMT5-MTA (Homo sapiens, UniProt O14744). Kind of test: Enzymatic inhibitory activity against PRMT5-MTA (AlphaScreen). The class given is biochemical. The essentials:
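PRMT5/[…] (1 nM) was preincubated for 30 min at room temperature with 1 µM […] and 2.5 µM SAM, then exposed to compound (10-point, 3-fold from 1000 nM) for 15 min at 23 °C. Histone H4 substrate (5 nM) was added and reacted for 45 min at 23 °C. Symmetric dimethyl-R3 H4 was detected by AlphaScreen and IC50 calculated.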
Background: Bead proximity is the source of the signal in Alpha formats.

The test system of another test is HCT116 MTAP KO cells. Put plainly: Inhibitory activity against cell proliferation (CellTiter Glo, 6 days), HCT116 MTAP KO. The class given is cell-based. As to conditions: for IC50: Homo sapiens, HCT-116, 144 h, HCT116 MTAP KO cells, 6 days, CellTiter Glo, read-out: HCT116 MTAP KO IC50; for Selectivity HCT 116-WT/ HCT116 MTAP KO: ratio of IC50 HCT116-WT / HCT116 MTAP KO. The essentials: as §1

Chain of PRMT5-MTA (O14744 whole entry): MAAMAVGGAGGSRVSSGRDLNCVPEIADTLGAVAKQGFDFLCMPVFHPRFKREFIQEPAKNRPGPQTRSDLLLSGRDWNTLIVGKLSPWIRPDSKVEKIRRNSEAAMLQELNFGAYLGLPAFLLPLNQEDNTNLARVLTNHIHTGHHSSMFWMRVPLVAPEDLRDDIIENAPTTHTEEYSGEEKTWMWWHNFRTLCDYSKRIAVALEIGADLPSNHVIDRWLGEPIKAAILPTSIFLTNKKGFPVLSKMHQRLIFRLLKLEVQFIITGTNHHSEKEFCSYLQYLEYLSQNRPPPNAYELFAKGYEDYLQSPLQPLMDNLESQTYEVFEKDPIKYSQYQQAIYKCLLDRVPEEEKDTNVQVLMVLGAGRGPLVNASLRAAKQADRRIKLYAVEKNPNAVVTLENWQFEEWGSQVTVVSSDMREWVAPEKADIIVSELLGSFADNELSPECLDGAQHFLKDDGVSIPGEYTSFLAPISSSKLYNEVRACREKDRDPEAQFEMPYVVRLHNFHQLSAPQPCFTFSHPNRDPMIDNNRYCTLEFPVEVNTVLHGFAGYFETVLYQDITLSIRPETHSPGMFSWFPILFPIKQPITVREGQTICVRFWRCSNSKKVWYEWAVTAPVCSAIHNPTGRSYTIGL
Chain of PRMT5-MTA (Q9BQA1 whole entry partner): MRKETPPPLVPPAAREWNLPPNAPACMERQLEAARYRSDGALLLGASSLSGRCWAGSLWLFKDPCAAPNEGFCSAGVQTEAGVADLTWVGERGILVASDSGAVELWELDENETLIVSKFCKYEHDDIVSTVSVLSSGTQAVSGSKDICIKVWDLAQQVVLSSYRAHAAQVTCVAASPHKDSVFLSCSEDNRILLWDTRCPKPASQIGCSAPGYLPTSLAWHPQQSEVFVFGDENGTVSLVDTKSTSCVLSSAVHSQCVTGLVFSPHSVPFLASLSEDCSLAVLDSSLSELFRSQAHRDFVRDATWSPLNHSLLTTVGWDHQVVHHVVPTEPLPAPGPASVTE

Regarding `Cc1cc2cc(C(=O)N(Cc3ccc(C4=CCCOC4)cn3)N(C)c3ncccn3)ccc2nc1N` [Example 187, 2-amino-N-((5-(5,6-dihydro-2H-pyran-3-yl)pyridin-2-yl)methyl)-N',3-dimethyl-N' -(pyrimidin-2-yl)quinoline-6-carbohydrazide], the values for the IC50 with HCT116-WT cells, on PRMT5-MTA (read-out: IC50) and in the test with HCT116 MTAP KO cells were 788 nM, 2.3 nM and 33 nM, respectively. In the test on HCT116 MTAP KO cells, the “Selectivity HCT 116-WT/ HCT116 MTAP KO” value is given as 23.88.
For `Cc1cc2nc(N)c3cnn(C)c3c2cc1C(=O)N1CC(C)CN1c1ncccc1F` (stereo not drawn) [Example 328, (4-amino-1,7-dimethyl-1H-pyrazolo[4,3-c]quinolin-8-yl)(2-(3-fluoropyridin-2-yl)-4-methylpyrazolidin-1-yl)methanone] the same measures were 2340 nM, 6.5 nM, 38 nM and 61.63.
The matching figures for `COC1CN(C(=O)c2cc3c(cc2C)nc(N)c2cnn(C)c23)N(c2cccc(F)n2)C1` (stereo not drawn) [Example 449, (4-amino-1,7-dimethyl-1H-pyrazolo[4,3-c]quinolin-8-yl)(2-(6-fluoropyridin-2-yl) -4-methoxypyrazolidin-1-yl)methanone]: 1470 nM, 5.2 nM, 63 nM and 23.37.
The matching figures for `Cc1cc2cc(C(=O)N(Cc3ccc(-c4cnn(CC(F)(F)F)c4)cn3)N(C)c3ncccn3)ccc2nc1N` [Example 181, 2-amino-N',3-dimethyl-N'-(pyrimidin-2-yl)-N-((5-(1-(2,2,2-trifluoroethyl)-1H-pyrazol-4-yl)pyridin-2-yl)methyl)quinoline-6-carbohydrazide]: 865 nM, 0.69 nM, 36 nM and 24.03.
`Cc1cc2nc(N)c3cnn(C)c3c2cc1C(=O)N1CC(C)CN1c1ccccc1` (stereo not drawn) [Example 396, (4-amino-1,7-dimethyl-1H-pyrazolo[4,3-c]quinolin-8-yl)(4-methyl-2-phenylpyrazolidin-1-yl)methanone]: the IC50 (commonly the concentration at which inhibition is half-maximal) in the test with HCT116-WT cells is 4830 nM; at PRMT5-MTA (read-out: IC50), 5.2 nM; with HCT116 MTAP KO cells it was 298 nM. Also, the “Selectivity HCT 116-WT/ HCT116 MTAP KO” value in the test on HCT116 MTAP KO cells is 16.21.
Take `Cn1ncc2c(N)nc3cc(Cl)c(C(=O)N4CC5(CN4c4ncc(Cl)cc4F)CC(F)(F)C5)cc3c21` [Example 412, (4-amino-7-chloro-1-methyl-1H-pyrazolo [4,3-c]quinolin-8-yl)(7-(5-chloro-3-fluoropyridin-2-yl)-2,2-difluoro-6,7-diazaspiro[3.4]octan-6-yl)methanone]: the values for the IC50 in the test on HCT116-WT cells, on PRMT5-MTA (read-out: IC50) and in the test on HCT116 MTAP KO cells were 179 nM, 6.2 nM and 10 nM, respectively. In the test on HCT116 MTAP KO cells, the “Selectivity HCT 116-WT/ HCT116 MTAP KO” value was 17.90.
In the case of `Cc1cc2nc(N)c3c(c2cc1C(=O)N1CC(C)CN1c1ncccc1F)COC3C` (stereo not drawn) [Example 510], the IC50 in the test with HCT116-WT cells was 7450 nM; at PRMT5-MTA, 4.8 nM; in the test with HCT116 MTAP KO cells, 222 nM. Moreover, the “Selectivity HCT 116-WT/ HCT116 MTAP KO” value with HCT116 MTAP KO cells turned out to be 33.55.
Regarding `Cc1cc2cc(C(=O)N(Cc3ccc(C(F)(F)F)cn3)N(C)c3ncccc3OC(F)F)ccc2nc1N` [Example 93, 2-amino-N'-(3-(difluoromethoxy)pyridin-2-yl)-N',3-dimethyl-N-((5-(trifluoromethyl)pyridin-2-yl)methyl)quinoline-6-carbohydrazide], the IC50 with HCT116-WT cells was 612 nM; at PRMT5-MTA (read-out: IC50), 1.4 nM; with HCT116 MTAP KO cells it was 20 nM. The “Selectivity HCT 116-WT/ HCT116 MTAP KO” value in the test with HCT116 MTAP KO cells turned out to be 30.60.
The matching figures for `[2H]C([2H])([2H])N(c1nccc2nccnc12)N(Cc1ccc(C(F)(F)F)cn1)C(=O)c1ccc2nc(N)c(C)cc2c1` [Example 62]: 1500 nM, 5.1 nM, 86 nM and 17.42.
The matching figures for `Cc1cc2cc(C(=O)N(Cc3ccc(C#N)cn3)N(C)c3ncccn3)ccc2nc1N` [Example 94, 2-amino-N-((5-cyanopyridin-2-yl)methyl)-N',3-dimethyl-N'-(pyrimidin-2-yl) quinoline-6-carbohydrazide]: 3070 nM, 2.3 nM, 130 nM and 23.60.
As for `Cc1cc2nc(N)c3cnn(C)c3c2cc1C(=O)N1CC(CC(F)(F)F)CN1c1ncccc1F` (stereo not drawn) [Example 408], the IC50 stood at 203 nM in the test with HCT116-WT cells, 4.8 nM against PRMT5-MTA and 10 nM with HCT116 MTAP KO cells. Moreover, the “Selectivity HCT 116-WT/ HCT116 MTAP KO” value with HCT116 MTAP KO cells was found to be 20.30.
In the case of `CCOC1CN(C(=O)c2cc3c(cc2C)nc(N)c2cnn(C)c23)N(c2ncccc2F)C1` (stereo not drawn) [Example 453, (4-amino-1,7-dimethyl-1H-pyrazolo[4,3-c]quinolin-8-yl)(4-ethoxy-2-(3-fluoropyridin-2-yl)pyrazolidin-1-yl)methanone], the IC50 in the test with HCT116-WT cells is 523 nM; on PRMT5-MTA (read-out: IC50) it was 5.2 nM; in the test on HCT116 MTAP KO cells, 23 nM. Further, the “Selectivity HCT 116-WT/ HCT116 MTAP KO” value in the test on HCT116 MTAP KO cells is 22.74.
For `Cc1cc2cc(C(=O)N(Cc3ccc(Br)cn3)N(C)c3ncccn3)ccc2nc1N` [Example 67, 2-amino-N-((5-bromopyridin-2-yl)methyl)-N',3-dimethyl-N'-(pyrimidin-2-yl)quin oline-6-carbohydrazide] the same measures were 1600 nM, 1.5 nM, 40 nM and 40.08.
`Cc1cc2cc(C(=O)N(Cc3ccc(C(F)(F)F)cn3)N(C)c3cccc(C(F)(F)F)n3)ccc2nc1N` [Example 88, 2-amino-N',3-dimethyl-N'-(6-(trifluoromethyl)pyridin-2-yl)-N-((5-(trifluoromethyl)pyridin-2-yl)methyl)quinoline-6-carbohydrazide]: the IC50 with HCT116-WT cells came to 2030 nM; at PRMT5-MTA (read-out: IC50), 2.5 nM; in the test on HCT116 MTAP KO cells, 176 nM. Also, the “Selectivity HCT 116-WT/ HCT116 MTAP KO” value in the test with HCT116 MTAP KO cells stood at 11.56.
The matching figures for `Cc1cc2nc(N)c3cnn(C)c3c2cc1C(=O)N1CC(C)CN1c1cccc(C2CC2)n1` (stereo not drawn) [Example 405, (4-amino-1,7-dimethyl-1H-pyrazolo[4,3-c]quinolin-8-yl)(2-(6-cyclopropylpyridin-2-yl) -4-methylpyrazolidin-1-yl)methanone]: 926 nM, 12.3 nM, 29 nM and 31.93.
For `Cn1ncc2c(N)nc3cc(Cl)c(C(=O)N4CC(F)(F)CN4c4ncc(Br)cc4F)cc3c21` [Example 456, (4-amino-7-chloro-1-methyl-1H-pyrazolo [4,3-c]quinolin-8-yl)(2-(5-bromo-3-fluor opyridin-2-yl)-4,4-difluoropyrazolidin-1-yl)methanone] the same measures were 1930 nM, 7 nM, 28 nM and 68.89.
For `Cn1ncc2c(N)nc3cc(Cl)c(C(=O)N4CC5(CN4c4ncc(Br)cc4F)CC(F)(F)C5)cc3c21` [Example 413, (4-amino-7-chloro-1-methyl-1H-pyrazolo [4,3-c]quinolin-8-yl)(7-(5-bromo-3-fluor opyridin-2-yl)-2,2-difluoro-6,7-diazaspiro[3.4]octan-6-yl)methanone] the same measures were 390 nM, 4.3 nM, 26 nM and 15.00.
`Cc1cc2nc(N)c3cnn(C)c3c2cc1C(=O)N1C(C)CCN1c1ncc(Br)cc1F` (stereo not drawn) [Example 391, (4-amino-1,7-dimethyl-1H-pyrazolo[4,3-c]quinolin-8-yl)(2-(5-bromo-3-fluoropyridin-2-yl)-5-methylpyrazolidin-1-yl)metha none]: the figures for the IC50 in the test with HCT116-WT cells, at PRMT5-MTA (read-out: IC50) and with HCT116 MTAP KO cells were 2850 nM, 7.4 nM and 84 nM, respectively. For the same molecule, the “Selectivity HCT 116-WT/ HCT116 MTAP KO” value in the test on HCT116 MTAP KO cells worked out at 33.94.
Take `Cc1cc2cc(C(=O)N(Cc3ccc(C(F)(F)F)cn3)N(C)c3nccc4nccnc34)ccc2nc1N` [Example 107, 2-amino-N',3-dimethyl-N'-(pyrido[3,4-b]pyrazin-5-yl)-N-((5-(trifluoromethyl)pyridin-2-yl)methyl)quinoline-6-carbohydrazide]: the IC50 in the test on HCT116-WT cells is 1620 nM; at PRMT5-MTA (read-out: IC50), 2.5 nM; in the test on HCT116 MTAP KO cells, 46 nM. Moreover, the “Selectivity HCT 116-WT/ HCT116 MTAP KO” value in the test on HCT116 MTAP KO cells turned out to be 35.15.
The matching figures for `Nc1nc2ccc(C(=O)N(Cc3ccc(C(F)(F)F)cn3)N(c3ncccn3)C3CC3)cc2cc1Br` [Example 270, 2-amino-3-bromo-N'-cyclopropyl-N'-(pyrimidin-2-yl)-N-((5-(trifluoromethyl)pyridin-2-yl)methyl)quinoline-6-carbohydrazide]: 1510 nM, 4.9 nM, 110 nM and 13.74.
For `COC1CN(C(=O)c2cc3c(cc2Cl)nc(N)c2cnn(C)c23)N(c2ncc(F)cc2F)C1` (stereo not drawn) [Example 442, (4-amino-7-chloro-1-methyl-1H-pyrazolo [4,3-c]quinolin-8-yl)(2-(3,5-2 fluoropyridin-2-yl)-4-methoxypyrazolidin-1-yl)methanone], the IC50 in the test with HCT116-WT cells was 634 nM; on PRMT5-MTA (read-out: IC50), 4.6 nM; with HCT116 MTAP KO cells, 42 nM. In addition, the “Selectivity HCT 116-WT/ HCT116 MTAP KO” value in the test on HCT116 MTAP KO cells is 15.10.
